1 molecule from publication PMC6472066, “Characterisation of three novel α-L-arabinofuranosidases from a compost metagenome” (BMC Biotechnology, 2019) can be followed below.

Structures are written as SMILES.

What all share (assay): pNP release at […] nm, Michaelis-Menten fit
Experiment [1] relates to T1, AFase-D3.
T1 construct: full-length ORF, 494 residues, 56 kDa; C-terminal His tag (pET21a, NdeI-XhoI); E. coli BL21(DE3); homo-hexamer; primer-encoded N-terminus MNNVVINV
It counts as biochemical, metagenome: high temperature compost. The settings on record: at the enzyme's pH and temperature optima (pH 4.5, 25 °C), 1 min; abstract gives KM range up to 0.43 mM; read-out: KM in mM (Std. error).

In experiment [2] the test system is T2, AFase-H4.
T2 construct: full-length ORF, 489 residues, 55 kDa, no signal peptide; C-terminal His tag (pET21a, NdeI-XhoI); E. coli BL21(DE3); homo-hexamer
It counts as biochemical, uncultured bacterium (compost metagenome). The settings on record: at the enzyme's pH and temperature optima (pH 5.0, 60 °C), 1 min; read-out: KM in mM (Std. error).

Experiment [3] has as its system T3, AFase-E3.
T3 construct: full-length ORF, 510 residues, 58 kDa; C-terminal His tag (pET21a, NdeI-HindIII); E. coli BL21(DE3); homo-hexamer
It counts as biochemical, metagenome: high temperature compost. Conditions: at the enzyme's pH and temperature optima (pH 4.0, 60 °C), 1 min; read-out: KM in mM (Std. error).

For `O=[N+]([O-])c1ccc(O[C@@H]2O[C@@H](CO)[C@H](O)[C@H]2O)cc1` [pNP-α-L-arabinofuranoside], the Michaelis-Menten constant (Km) in experiment [1] turned out to be 0.38 mM; in experiment [2] it was 0.31 mM; in experiment [3], 0.33 mM.
